This passage reports IC50 results from patent US20240116985A1, “STAPLED PEPTIDES AND METHODS THEREOF” (priority 2020, published 2024).

As a reminder, the IC50 is the concentration needed to halve the response being measured.

Assay [1] has as its target T1, full-length beta-Catenin (Uniprot ID P35222) (Homo sapiens, UniProt P35222).
T1 construct: 10 nM full-length beta-Catenin (Uniprot ID P35222)
T1 sequence (P35222 1-781): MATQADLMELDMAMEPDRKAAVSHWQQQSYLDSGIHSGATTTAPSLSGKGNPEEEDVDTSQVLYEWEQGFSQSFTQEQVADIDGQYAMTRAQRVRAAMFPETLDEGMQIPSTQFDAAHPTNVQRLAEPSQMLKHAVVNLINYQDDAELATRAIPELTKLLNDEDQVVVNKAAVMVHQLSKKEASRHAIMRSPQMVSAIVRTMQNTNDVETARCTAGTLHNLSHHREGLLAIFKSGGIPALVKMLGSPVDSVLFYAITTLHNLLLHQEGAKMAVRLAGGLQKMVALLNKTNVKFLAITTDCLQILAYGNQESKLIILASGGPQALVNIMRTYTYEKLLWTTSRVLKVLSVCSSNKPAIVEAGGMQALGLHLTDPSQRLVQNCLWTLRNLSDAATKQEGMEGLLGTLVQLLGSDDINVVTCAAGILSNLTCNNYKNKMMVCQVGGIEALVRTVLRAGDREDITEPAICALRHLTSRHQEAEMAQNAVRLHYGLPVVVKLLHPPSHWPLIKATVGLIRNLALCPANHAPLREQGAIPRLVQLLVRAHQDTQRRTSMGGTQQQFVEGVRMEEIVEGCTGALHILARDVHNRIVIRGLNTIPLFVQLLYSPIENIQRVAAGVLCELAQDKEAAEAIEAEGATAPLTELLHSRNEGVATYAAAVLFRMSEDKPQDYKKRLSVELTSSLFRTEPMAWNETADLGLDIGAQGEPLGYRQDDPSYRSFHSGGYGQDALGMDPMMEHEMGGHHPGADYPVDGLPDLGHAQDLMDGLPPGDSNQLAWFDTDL
Description: Fluorescence polarization IC50 (beta-catenin / 5FAM-TCF4 10-53 competition). The class given is binding. Conditions: fluorescence polarization; read-out: beta-Catenin FP IC50.

Assay [2] concerns the target T2, beta-catenin/TCF4 engagement (Homo sapiens, UniProt P35222).
T2 construct: expressed in transfected cells; host or cells: HEK293
T2 sequence (P35222 1-781): T1 sequence (P35222 1-781)
The assay is described as follows: Nano-BRET target engagement assay (B-cat-Halo & TCF4-Luc in HEK293 cells). The class given is cell-based. Conditions: absolute IC50; read-out: NanoBRET Abs IC50. Background: BRET reads energy transfer from a luciferase to a nearby fluorophore.

Bounds are passed on as bounds.

With `CC(=O)N1CCC[C@]12CC=CCCCC1(CCCC=CCCCOC(=O)N3CC[C@@](C(=O)N[C@@H](Cc4ccccc4)C(=O)N[C@@H](Cc4csc5ccccc45)C(=O)N[C@@H](CCCCN)C(N)=O)(C3)NC(=O)[C@H](CC(C)C)NC(=O)[C@H](Cc3ccccc3)NC(=O)[C@H](C)NC(=O)[C@H](CCCCNC(C)C)NC(=O)[C@H](CCC(N)=O)NC(=O)[C@H](CC(=O)O)NC1=O)NC(=O)[C@H](CC1CCCCC1)NC(=O)[C@H](CC(=O)O)NC2=O` (stereo partly drawn) [I-2429, Ac-PL3-Asp-Cha-B5-Asp-Gln-iPrLys-Ala-Phe-Leu-PyrS2-Phe-BztA-Lys-NH2], the IC50 in assay [1] was 10 nM; in assay [2], above 20000 nM.

As for `CC(=O)N1CCC[C@]12CC=CCCCC1(CCCC=CCCCOC(=O)N3CC[C@@](C(=O)N[C@@H](Cc4ccccc4C(F)(F)F)C(=O)N[C@@H](Cc4csc5ccccc45)C(=O)N[C@@H](CCC(N)=O)C(N)=O)(C3)NC(=O)[C@H](CC(C)C)NC(=O)[C@H](Cc3ccccc3)NC(=O)[C@H](C)NC(=O)[C@H](C)NC(=O)[C@H](Cc3cc(C(=O)O)cc(C(C)C)c3)NC(=O)[C@H](CC(=O)O)NC1=O)NC(=O)[C@H](CC(C)(C)C)NC(=O)[C@H](CC(=O)O)NC2=O` (stereo partly drawn) [I-2430, Ac-PL3-Asp-Npg-B5-Asp-5iPr3COOHF-Ala-Ala-Phe-Leu-PyrS2-2F3MeF-BztA-Gln-NH2], the IC50 in assay [1] was 32 nM; in assay [2], 4500 nM.

As to `CC(=O)N1CCC[C@]12CC=CCCCC1(CCCC=CCCCOC(=O)N3CC[C@@](C(=O)N[C@@H](Cc4ccccc4C(F)(F)F)C(=O)N[C@@H](Cc4csc5ccccc45)C(=O)N[C@@H](C)C(N)=O)(C3)NC(=O)[C@H](CC(C)C)NC(=O)[C@H](Cc3ccccc3)NC(=O)[C@H](C)NC(=O)[C@H](CCC(N)=O)NC(=O)[C@H](Cc3cc(C(=O)O)cc(C(C)C)c3)NC(=O)[C@H](CC(=O)O)NC1=O)NC(=O)[C@H](CC(C)(C)C)NC(=O)[C@H](CC(=O)O)NC2=O` (stereo partly drawn) [I-2431, Ac-PL3-Asp-Npg-B5-Asp-5iPr3COOHF-Gln-Ala-Phe-Leu-PyrS2-2F3MeF-BztA-Ala-NH2], the results for the half-inhibitory concentration (IC50) in assay [1] and in assay [2] were 33 nM and 7000 nM, respectively.

`CC(=O)N1CCC[C@]12CC=CCCCC1(CCCC=CCCCOC(=O)N3CC[C@@](C(=O)N[C@@H](Cc4ccsc4)C(=O)N[C@@H](Cc4csc5ccccc45)C(=O)N[C@@H](CCC(N)=O)C(N)=O)(C3)NC(=O)[C@H](CC(C)C)NC(=O)[C@H](Cc3ccccc3)NC(=O)[C@H](C)NC(=O)[C@H](CCCCNC(C)C)NC(=O)[C@H](CCC(N)=O)NC(=O)[C@H](CC(=O)O)NC1=O)NC(=O)[C@H](CC1CCCCC1)NC(=O)[C@H](CC(N)=O)NC2=O` (stereo partly drawn) [I-2446, Ac-PL3-Asn-Cha-B5-Asp-Gln-iPrLys-Ala-Phe-Leu-PyrS2-3Thi-BztA-Gln-NH2]: the figures for the IC50 in assay [1] and in assay [2] were 93 nM and above 20000 nM, respectively.

Consider `CC(=O)N1CCC[C@]12CC=CCCCC1(CCCC=CCCCOC(=O)N3CC[C@@](C(=O)N[C@@H](Cc4ccccc4)C(=O)N[C@@H](Cc4csc5ccccc45)C(=O)N[C@@H](CCC(N)=O)C(N)=O)(C3)NC(=O)[C@H](CC(C)C)NC(=O)[C@H](Cc3ccccc3)NC(=O)[C@H](C)NC(=O)[C@H](CCCCNC(C)C)NC(=O)[C@H]([C@@H](C)O)NC(=O)[C@H](CC(=O)O)NC1=O)NC(=O)[C@H](CC1CCCCC1)NC(=O)[C@H](CC(N)=O)NC2=O` (stereo partly drawn) [I-2448, Ac-PL3-Asn-Cha-B5-Asp-Thr-iPrLys-Ala-Phe-Leu-PyrS2-Phe-BztA-Gln-NH2], for which the IC50 was 84 nM in assay [1] and above 20000 nM in assay [2].

As to `CC(=O)N1CCC[C@]12CC=CCCCC1(CCCC=CCCCOC(=O)N3CC[C@@](C(=O)N[C@@H](Cc4ccccc4)C(=O)N[C@@H](Cc4csc5ccccc45)C(=O)N[C@@H](CCCCN)C(N)=O)(C3)NC(=O)[C@H](CC(C)C)NC(=O)[C@H](Cc3ccccc3)NC(=O)[C@H](C)NC(=O)[C@H](CCCCNC(C)C)NC(=O)[C@H]([C@@H](C)O)NC(=O)[C@H](CC(=O)O)NC1=O)NC(=O)[C@H](CC1CCCCC1)NC(=O)[C@H](CC(N)=O)NC2=O` (stereo partly drawn) [I-2450, Ac-PL3-Asn-Cha-B5-Asp-Thr-iPrLys-Ala-Phe-Leu-PyrS2-Phe-BztA-Lys-NH2], the IC50 in assay [1] is 63 nM; in assay [2], above 20000 nM.

Consider `CC(=O)N1CCC[C@]12CC=CCCCC1(CCCC=CCCCOC(=O)N3CC[C@@](C(=O)N[C@@H](Cc4ccccc4C(F)(F)F)C(=O)N[C@H](C(=O)N[C@@H](CCC(N)=O)C(N)=O)[C@@H](C)c4csc5ccccc45)(C3)NC(=O)[C@H](CC(C)C)NC(=O)[C@H](Cc3ccccc3)NC(=O)[C@H](C)NC(=O)[C@H](C)NC(=O)[C@H](Cc3cccc(C(=O)O)c3)NC(=O)[C@H](CC(=O)O)NC1=O)NC(=O)[C@H](CC(C)(C)C)NC(=O)[C@H](CC(=O)O)NC2=O` (stereo partly drawn) [I-2456, Ac-PL3-Asp-Npg-B5-Asp-3COOHF-Ala-Ala-Phe-Leu-PyrS2-2F3MeF-SbMeBztA-Gln-NH2], for which the values for the 50% inhibitory concentration (IC50) in assay [1] and in assay [2] were 49 nM and 8100 nM, respectively.

As to `CC(=O)N1CCC[C@]12CC=CCCCC1(CCCC=CCCCOC(=O)N3CC[C@@](C(=O)N[C@@H](Cc4ccccc4C(F)(F)F)C(=O)N[C@H](C(=O)N[C@@H](C)C(N)=O)[C@@H](C)c4csc5ccccc45)(C3)NC(=O)[C@H](CC(C)C)NC(=O)[C@H](Cc3ccccc3)NC(=O)[C@H](C)NC(=O)[C@H](CCC(N)=O)NC(=O)[C@H](Cc3cccc(C(=O)O)c3)NC(=O)[C@H](CC(=O)O)NC1=O)NC(=O)[C@H](CC(C)(C)C)NC(=O)[C@H](CC(=O)O)NC2=O` (stereo partly drawn) [I-2457, Ac-PL3-Asp-Npg-B5-Asp-3COOHF-Gln-Ala-Phe-Leu-PyrS2-2F3MeF-SbMeBztA-Ala-NH2], the IC50 in assay [1] is 52 nM; in assay [2], 20800 nM.

Take `CC(=O)N1CCC[C@]12CC=CCCCC1(CCCC=CCCCOC(=O)N3CC[C@@](C(=O)N[C@@H](Cc4ccccc4C(F)(F)F)C(=O)N[C@H](C(=O)N[C@@H](CCC(N)=O)C(N)=O)[C@H](C)c4csc5ccccc45)(C3)NC(=O)[C@H](CC(C)C)NC(=O)[C@H](Cc3ccccc3)NC(=O)[C@H](C)NC(=O)[C@H](C)NC(=O)[C@H](Cc3cccc(C(=O)O)c3)NC(=O)[C@H](CC(=O)O)NC1=O)NC(=O)[C@H](CC(C)(C)C)NC(=O)[C@H](CC(=O)O)NC2=O` (stereo partly drawn) [I-2458, Ac-PL3-Asp-Npg-B5-Asp-3COOHF-Ala-Ala-Phe-Leu-PyrS2-2F3MeF-RbMeBztA-Gln-NH2]: the IC50 in assay [1] came out at 33 nM; in assay [2] it was 5900 nM.

With `CC(=O)N1CCC[C@]12CC=CCCCC1(CCCC=CCCCOC(=O)N3CC[C@@](C(=O)N[C@@H](Cc4ccccc4C(F)(F)F)C(=O)N[C@H](C(=O)N[C@@H](C)C(N)=O)[C@H](C)c4csc5ccccc45)(C3)NC(=O)[C@H](CC(C)C)NC(=O)[C@H](Cc3ccccc3)NC(=O)[C@H](C)NC(=O)[C@H](CCC(N)=O)NC(=O)[C@H](Cc3cccc(C(=O)O)c3)NC(=O)[C@H](CC(=O)O)NC1=O)NC(=O)[C@H](CC(C)(C)C)NC(=O)[C@H](CC(=O)O)NC2=O` (stereo partly drawn) [I-2459, Ac-PL3-Asp-Npg-B5-Asp-3COOHF-Gln-Ala-Phe-Leu-PyrS2-2F3MeF-RbMeBztA-Ala-NH2], the IC50 in assay [1] was found to be 56 nM; in assay [2], 15100 nM.

In the case of `CC(=O)N1CCC[C@]12CC=CCCCC1(CCCC=CCCCOC(=O)N3CC[C@@](C(=O)N[C@@H](Cc4ccccc4C(F)(F)F)C(=O)N[C@@H](Cc4ccc5ccccc5c4)C(=O)N[C@@H](CCC(N)=O)C(N)=O)(C3)NC(=O)[C@H](CC(C)C)NC(=O)[C@H](Cc3ccccc3)NC(=O)[C@H](C)NC(=O)[C@H](C)NC(=O)[C@H](Cc3cccc(C(=O)O)c3)NC(=O)[C@H](CC(=O)O)NC1=O)NC(=O)[C@H](CC(C)(C)C)NC(=O)[C@H](CC(=O)O)NC2=O` (stereo partly drawn) [I-2460, Ac-PL3-Asp-Npg-B5-Asp-3COOHF-Ala-Ala-Phe-Leu-PyrS2-2F3MeF-2NapA-Gln-NH2], the IC50 in assay [1] came to 82 nM; in assay [2] it was 12800 nM.

In the case of `CC(=O)N1CCC[C@]12CC=CCCCC1(CCCC=CCCCOC(=O)N3CC[C@@](C(=O)N[C@@H](Cc4ccccc4C(F)(F)F)C(=O)N[C@H](C(=O)N[C@@H](CCC(N)=O)C(N)=O)[C@H](C)c4ccc5ccccc5c4)(C3)NC(=O)[C@H](CC(C)C)NC(=O)[C@H](Cc3ccccc3)NC(=O)[C@H](C)NC(=O)[C@H](C)NC(=O)[C@H](Cc3cccc(C(=O)O)c3)NC(=O)[C@H](CC(=O)O)NC1=O)NC(=O)[C@H](CC(C)(C)C)NC(=O)[C@H](CC(=O)O)NC2=O` (stereo partly drawn) [I-2462, Ac-PL3-Asp-Npg-B5-Asp-3COOHF-Ala-Ala-Phe-Leu-PyrS2-2F3MeF-RbMe2NapA-Gln-NH2], the IC50 in assay [1] stood at 40 nM; in assay [2] it was 4700 nM.

In the case of `CC(=O)N1CCC[C@]12CC=CCCCC1(CCCC=CCCCOC(=O)N3CC[C@@](C(=O)N[C@@H](Cc4ccccc4C(F)(F)F)C(=O)N[C@H](C(=O)N[C@@H](C)C(N)=O)[C@H](C)c4ccc5ccccc5c4)(C3)NC(=O)[C@H](CC(C)C)NC(=O)[C@H](Cc3ccccc3)NC(=O)[C@H](C)NC(=O)[C@H](CCC(N)=O)NC(=O)[C@H](Cc3cccc(C(=O)O)c3)NC(=O)[C@H](CC(=O)O)NC1=O)NC(=O)[C@H](CC(C)(C)C)NC(=O)[C@H](CC(=O)O)NC2=O` (stereo partly drawn) [I-2463, Ac-PL3-Asp-Npg-B5-Asp-3COOHF-Gln-Ala-Phe-Leu-PyrS2-2F3MeF-RbMe2NapA-Ala-NH2], the IC50 in assay [1] turned out to be 47 nM; in assay [2], 6500 nM.
